Several values for one entry are separate records, joined by “and”; a condition that tells them apart may be missing. Equal entries are not always repeated. Activity calls are given as the source filed them.
Assays:
Cytochrome P450 3A4 = Cytochrome P450 3A4 (Homo sapiens, UniProt P08684); conditions: Potency;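 also: confirmatory qHTS run detecting inhibitors and substrates of CYP3A4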
[1] = target: T1, Adenosylmethionine-8-amino-7-oxononanoate aminotransferase (Mycobacterium tuberculosis, UniProt P9WQ81); test: Mycobacterium tuberculosis BioA enzyme inhibitor Measured in Biochemical System Using Plate Reader - 2163-02_Inhibitor_Dose_CherryPick_Activity.; type: functional, Mycobacterium tuberculosis UT205
T1 sequence (P9WQ81 whole entry): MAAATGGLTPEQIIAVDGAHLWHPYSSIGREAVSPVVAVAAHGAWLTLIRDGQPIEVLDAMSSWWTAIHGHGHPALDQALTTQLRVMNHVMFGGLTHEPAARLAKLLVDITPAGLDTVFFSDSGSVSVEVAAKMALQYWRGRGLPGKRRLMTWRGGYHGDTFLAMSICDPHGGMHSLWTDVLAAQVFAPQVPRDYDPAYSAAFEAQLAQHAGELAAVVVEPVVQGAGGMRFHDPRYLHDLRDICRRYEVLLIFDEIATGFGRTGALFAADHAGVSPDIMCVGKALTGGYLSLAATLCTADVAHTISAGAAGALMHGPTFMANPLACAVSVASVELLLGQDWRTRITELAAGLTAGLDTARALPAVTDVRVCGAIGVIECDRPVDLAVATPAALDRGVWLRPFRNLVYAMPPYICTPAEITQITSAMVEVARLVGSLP

[2] = cytotoxicity toward NIH3T3 fibroblasts, dose response, counter-screen, cell-based, ATP luminescence, mouse fibroblasts (AID 2010); type: functional;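 also: cells exposed to compound for about 90 hours before reading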
[3] = target: T2, Mannose-6-phosphate isomerase (Homo sapiens, UniProt P34949); test: inhibitors of human PMI, primary screen, biochemical, fluorescence intensity, coupled assay (AID 1209)
T2 sequence (P34949 whole entry): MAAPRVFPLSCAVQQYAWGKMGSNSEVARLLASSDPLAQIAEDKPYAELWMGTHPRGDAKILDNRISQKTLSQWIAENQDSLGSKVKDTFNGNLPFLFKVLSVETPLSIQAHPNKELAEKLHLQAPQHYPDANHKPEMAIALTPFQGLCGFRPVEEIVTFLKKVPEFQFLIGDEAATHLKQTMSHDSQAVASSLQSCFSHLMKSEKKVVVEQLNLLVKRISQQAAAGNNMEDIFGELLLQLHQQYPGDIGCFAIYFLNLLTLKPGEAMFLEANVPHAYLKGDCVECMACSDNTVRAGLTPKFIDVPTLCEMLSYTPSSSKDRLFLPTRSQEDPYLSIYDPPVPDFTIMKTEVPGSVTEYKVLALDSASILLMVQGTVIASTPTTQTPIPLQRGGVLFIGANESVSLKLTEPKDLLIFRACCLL

[4] = inhibitors of intracellular T. cruzi replication, confirmation, NIH3T3 host cells, beta-gal luminescence (AID 2044); type: functional, cell-based;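 also: intracellular parasites grown in NIH/3T3 mouse fibroblasts as host cells; luminescent beta-galactosidase reporter signal from transgenic T. cruzi replicating inside host cells; inhibitors lower the luminescence signal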
[5] = THP-1 cell cytotoxicity, dose response, cytotoxicity control for non-replicating M. tuberculosis project (AID 489025); type: functional
[6] = Vero E6 cell cytotoxicity, dose response, cytotoxicity control for non-replicating M. tuberculosis project, secondary assay (AID 492998); type: functional, VeroE6; conditions: Vero C1008
cells [7] = type: functional
[8] = HepG2 cell cytotoxicity, dose response, cytotoxicity control for non-replicating M. tuberculosis project (AID 489018); type: functional; conditions: Mycobacterium tuberculosis
[9] = target: T3, Tyrosyl-DNA phosphodiesterase 2 (Homo sapiens, UniProt O95551); test: human TDP2 enzyme inhibitors, dose response, biochemical, epi absorbance, IC50 (AID 743297)
T3 sequence (O95551 whole entry): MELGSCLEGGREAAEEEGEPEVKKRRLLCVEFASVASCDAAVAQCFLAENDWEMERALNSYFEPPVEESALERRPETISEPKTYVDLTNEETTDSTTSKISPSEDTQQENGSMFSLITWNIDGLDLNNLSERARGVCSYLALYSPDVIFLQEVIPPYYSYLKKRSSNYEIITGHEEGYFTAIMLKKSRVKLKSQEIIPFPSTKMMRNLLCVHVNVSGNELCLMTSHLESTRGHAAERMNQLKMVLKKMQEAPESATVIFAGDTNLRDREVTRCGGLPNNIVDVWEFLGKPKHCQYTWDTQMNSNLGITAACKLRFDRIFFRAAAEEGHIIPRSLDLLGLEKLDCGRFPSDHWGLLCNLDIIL

cells [10] = type: functional, cell-based
cells [11] = type: functional, cell-based; remark: listed apart in the source
[12] = target: T4, Probable nicotinate-nucleotide adenylyltransferase (Staphylococcus aureus (strain N315), UniProt P65502); type: functional, Staphylococcus aureus subsp. aureus N315;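 as to IC50 Mean: confirmatory dose-response retesting of NadD inhibitor hits first found in an ultra-high-throughput screen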
[13] = target: T4, Probable nicotinate-nucleotide adenylyltransferase; type: functional, Staphylococcus aureus subsp. aureus N315; conditions: read-out: IC50_Mean
Bcl-2-like protein 10 = target: T5, Bcl-2-like protein 10 (Homo sapiens, UniProt Q9HD36); test: displacers of TR3 peptide from Bcl-B, primary screen, selectivity assay for Bfl-1 inhibitor project, biochemical, fluorescence polarization, FITC-TR3 peptide (AID 748);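 also: fluorescence polarization from a fluorescein-labelled TR3 peptide binding purified Bcl-B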
T5 sequence (Q9HD36 whole entry): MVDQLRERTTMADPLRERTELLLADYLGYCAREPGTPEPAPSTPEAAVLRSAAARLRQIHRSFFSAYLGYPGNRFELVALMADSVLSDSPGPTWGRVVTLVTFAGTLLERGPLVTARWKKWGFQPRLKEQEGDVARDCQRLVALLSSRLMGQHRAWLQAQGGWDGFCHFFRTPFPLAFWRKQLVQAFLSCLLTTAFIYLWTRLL

Streptococcus = test: Group A Streptococcus viability loss, dose response, counter-screen for streptokinase expression inhibitor project, luminescence, BacTiterGlo (AID 1915); type: functional, organism-based;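 also: potency for reduction of bacterial viability or growth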
[14] = tested on: Streptococcus sp. 'group A'; test: growth inhibition of control SK(-) GAS strain, dose response, counter-screen for streptokinase expression inhibitor project, luminescence, kanamycin, BacTiterGlo, confirmation (AID 1900); type: functional, organism-based
[15] = target: T6, Calpain-2 catalytic subunit (Sus scrofa, UniProt P43367); test: pig calpain II inhibitor potency, dose response, biochemical, fluorogenic peptide substrate (AID 1420); type: functional
T6 sequence (P43367 whole entry): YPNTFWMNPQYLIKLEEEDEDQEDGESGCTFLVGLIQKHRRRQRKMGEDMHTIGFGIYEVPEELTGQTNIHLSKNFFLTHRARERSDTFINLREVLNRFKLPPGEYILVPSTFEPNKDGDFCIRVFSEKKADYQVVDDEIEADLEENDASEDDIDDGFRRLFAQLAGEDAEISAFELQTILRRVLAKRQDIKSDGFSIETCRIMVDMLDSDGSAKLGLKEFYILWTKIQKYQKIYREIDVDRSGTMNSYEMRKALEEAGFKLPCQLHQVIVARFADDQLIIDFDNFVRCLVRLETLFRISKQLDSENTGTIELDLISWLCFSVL

Streptokinase A = target: T7, Streptokinase A (Streptococcus pyogenes serotype M1, UniProt P10520); test: S. pyogenes streptokinase expression inhibitors, potency, dose response, plasminogen activation absorbance, OD405 (AID 1914); type: functional, Streptococcus pyogenes M1 GAS;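 also: secreted streptokinase activity via plasminogen activation per viability signal from cell pellet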
T7 sequence (P10520 whole entry): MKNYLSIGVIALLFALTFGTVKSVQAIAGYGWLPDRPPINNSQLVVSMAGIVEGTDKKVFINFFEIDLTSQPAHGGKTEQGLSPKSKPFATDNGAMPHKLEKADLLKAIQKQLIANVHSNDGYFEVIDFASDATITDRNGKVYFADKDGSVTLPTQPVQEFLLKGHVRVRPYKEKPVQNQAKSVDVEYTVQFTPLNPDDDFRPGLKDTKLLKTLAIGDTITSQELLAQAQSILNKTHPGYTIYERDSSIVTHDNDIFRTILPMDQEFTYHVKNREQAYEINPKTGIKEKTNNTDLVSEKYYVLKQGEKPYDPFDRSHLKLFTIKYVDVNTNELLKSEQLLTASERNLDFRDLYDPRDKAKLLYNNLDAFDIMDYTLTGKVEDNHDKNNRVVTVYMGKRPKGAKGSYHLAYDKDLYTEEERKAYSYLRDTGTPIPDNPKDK

SN12K1 = test: cells; type: functional; conditions: Homo sapiens
P388/ADR = test: cells; type: functional; conditions: Mus musculus
P388 = test: cells; type: functional; conditions: Mus musculus
Large T antigen = Large T antigen (Simian virus 40, UniProt P03070); type: functional, Betapolyomavirus macacae;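 also: Confirmatory-stage PubChem screen for compounds that inhibit SV40 T antigen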
[16] = target: DNA dC->dU-editing enzyme APOBEC-3G (Homo sapiens, UniProt Q9HC16); test: Dose Response confirmation of small molecule APOBEC3G DNA Deaminase Inhibitors via a fluorescence-based single-stranded DNA deaminase assay. [Related pubchem assays (depositor defined):AID493012, AID493028]; type: functional
DNA dC->dU-editing enzyme APOBEC-3G, sequence (Q9HC16 whole entry): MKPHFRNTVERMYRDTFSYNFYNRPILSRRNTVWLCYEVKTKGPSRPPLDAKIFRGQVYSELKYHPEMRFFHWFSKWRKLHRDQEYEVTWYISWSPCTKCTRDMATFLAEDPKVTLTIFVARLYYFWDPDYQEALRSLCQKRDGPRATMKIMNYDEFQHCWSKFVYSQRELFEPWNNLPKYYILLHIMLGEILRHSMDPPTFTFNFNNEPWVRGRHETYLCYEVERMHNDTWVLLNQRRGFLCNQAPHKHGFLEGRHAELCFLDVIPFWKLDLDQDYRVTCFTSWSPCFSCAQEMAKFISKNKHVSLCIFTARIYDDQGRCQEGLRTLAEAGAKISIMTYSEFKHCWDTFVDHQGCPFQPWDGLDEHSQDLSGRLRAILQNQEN

Cytochrome P450 3A4, sequence (P08684 whole entry): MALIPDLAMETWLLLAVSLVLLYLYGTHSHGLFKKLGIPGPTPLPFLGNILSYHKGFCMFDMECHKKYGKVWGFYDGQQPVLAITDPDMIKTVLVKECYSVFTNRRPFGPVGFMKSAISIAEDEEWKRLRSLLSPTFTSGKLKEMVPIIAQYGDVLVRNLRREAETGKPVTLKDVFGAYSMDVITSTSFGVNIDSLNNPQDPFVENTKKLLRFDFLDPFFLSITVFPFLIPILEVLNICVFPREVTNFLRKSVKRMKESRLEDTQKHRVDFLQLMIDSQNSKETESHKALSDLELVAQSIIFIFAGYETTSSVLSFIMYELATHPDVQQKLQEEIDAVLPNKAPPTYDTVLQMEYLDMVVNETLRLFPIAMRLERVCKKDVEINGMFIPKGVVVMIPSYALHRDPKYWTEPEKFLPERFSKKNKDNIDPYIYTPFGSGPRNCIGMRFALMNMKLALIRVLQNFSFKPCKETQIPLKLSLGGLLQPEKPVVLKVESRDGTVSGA
T4 sequence (P65502 whole entry): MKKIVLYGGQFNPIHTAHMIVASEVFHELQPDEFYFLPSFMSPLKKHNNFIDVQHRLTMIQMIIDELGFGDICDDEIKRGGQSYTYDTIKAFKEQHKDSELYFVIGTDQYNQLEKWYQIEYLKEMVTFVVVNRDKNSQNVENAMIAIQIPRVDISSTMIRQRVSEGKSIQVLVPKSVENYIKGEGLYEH
Large T antigen, sequence (P03070 whole entry): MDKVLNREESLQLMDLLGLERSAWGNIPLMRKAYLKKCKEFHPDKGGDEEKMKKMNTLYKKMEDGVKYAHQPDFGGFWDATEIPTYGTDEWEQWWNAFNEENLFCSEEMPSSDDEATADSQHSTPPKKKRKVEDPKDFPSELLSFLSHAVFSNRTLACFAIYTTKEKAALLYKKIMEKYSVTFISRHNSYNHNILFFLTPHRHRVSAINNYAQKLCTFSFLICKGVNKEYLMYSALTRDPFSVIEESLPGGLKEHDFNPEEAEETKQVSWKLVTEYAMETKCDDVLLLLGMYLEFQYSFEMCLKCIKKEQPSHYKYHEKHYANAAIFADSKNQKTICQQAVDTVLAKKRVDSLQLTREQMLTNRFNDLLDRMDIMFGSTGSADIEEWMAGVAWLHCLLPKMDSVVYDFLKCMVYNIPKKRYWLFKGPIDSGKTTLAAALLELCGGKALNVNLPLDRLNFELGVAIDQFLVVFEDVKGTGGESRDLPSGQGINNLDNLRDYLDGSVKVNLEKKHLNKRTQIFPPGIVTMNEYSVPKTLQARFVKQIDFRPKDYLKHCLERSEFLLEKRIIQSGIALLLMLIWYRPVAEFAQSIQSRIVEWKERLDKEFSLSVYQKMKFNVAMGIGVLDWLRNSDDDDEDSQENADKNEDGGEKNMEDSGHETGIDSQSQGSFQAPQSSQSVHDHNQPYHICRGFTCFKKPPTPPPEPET

CC1CCC2C(=O)OC(Cc3ccccc3)CN2C1c1ccc(Br)cc1 (stereo unspecified)
AC50 (Cytochrome P450 3A4): 3.98 µM (inconclusive) and 5.01 µM (inconclusive)

C=CCn1c(SCc2c(C(=O)OC)sc(N)c2C(=O)OC)nnc1-c1ccc(Cl)cc1
AC50 [1]: 0.244 µM (active)

CN(C)C(S)=Nc1nc2ccccc2s1
EC50 [2]: > 60 µM (not active)
IC50 [3]: 3.79 µM (active)
EC50 [4]: 2.48 µM (active)

COc1cccc(C(=O)N2N=C(c3ccccn3)CC2(O)C(F)(F)F)c1 (stereo unspecified)
CC50 [5]: 9.99 µM (active)
CC50 [6]: 10.1 µM (active)
IC50 (cells [7]): 8.68 µM (active)
CC50 [8]: > 20 µM (active)

O=C(Nc1c(-c2ccc3c(c2)OCO3)[nH][nH]c1=O)c1ccc2c(c1)OCO2
IC50 [9]: > 129 µM (inactive)

COc1ccc(OC)c(NC2=NCCCS2)c1
EC50 (cells [10]): > 350 µM (not active)
EC50 (cells [11]): > 350 µM (not active)

N#CC1=C(S)N=C(N)C(c2nc(-c3ccccc3)cs2)C12CCCC2 (stereo unspecified)
IC50 [12]: 8.09 µM (active)
IC50 [13]: 19.1 µM (active)

Cc1nc(C(=O)NNC(=O)c2ccc(Cl)cc2)c(C(F)(F)F)o1
CC50 [5]: 27.8 µM (active)
CC50 [6]: > 20 µM (active)
IC50 (cells [7]): 44.9 µM (active)
CC50 [8]: > 20 µM (active)

COCC(=O)N1CC[C@@H]2[C@@H](CO)N(C)c3ccc(-c4ccc(F)cc4)cc3[C@@H]21
AC50 [1]: 0.948 µM (active)

CCC(=O)Nc1cccc(NC(C)=O)c1
IC50 (Bcl-2-like protein 10): 56.6 µM (inactive)

O=C(COC(=O)c1ccccc1Nc1ccccc1)NCc1ccccc1Cl
EC50 (cells [10]): > 350 µM (not active)
EC50 (cells [11]): > 350 µM (not active)

OCC(O)Cc1ccc2c(c1)OCO2 (stereo unspecified) [SAFROLGLYCOL]
AC50 (Cytochrome P450 3A4): 39.8 µM (inconclusive)

Cc1cc(C(=O)N/N=C/c2ccc([N+](=O)[O-])s2)[nH]n1
EC50 [2]: > 60 µM (not active)
EC50 [4]: 0.612 µM (active)
CC50 [5]: > 40 µM (active)
EC50 (Streptococcus): 2.69 µM (active)
EC50 [14]: 1.86 µM (active)
IC50 [15]: 6.84 µM (not active)
CC50 [6]: 16.9 µM (active)
IC50 (cells [7]): 8.88 µM (active)

Cc1cnc(C(=O)NC2CC(C)(C)Cc3c2cnn3-c2cccc(F)c2)cn1 (stereo unspecified)
AC50 [1]: 1.63 µM (active)

O=C1c2ccccc2C(=O)c2c1cccc2N1CCN(CCO)CC1
IC50 (Bcl-2-like protein 10): > 25 µM (inactive)

O=C(Nc1cccnc1)C1CCN(S(=O)(=O)c2ccc(Cl)cc2)CC1
AC50 [1]: 0.711 µM (active)

Cc1ccnc(NS(=O)(=O)c2ccc(NC(=O)c3cc(-c4ccc(Br)cc4)nc4ccccc34)cc2)n1
EC50 (Streptokinase A): 5.84 µM (inconclusive)
EC50 (Streptococcus): 68.9 µM (active)
IC50 [12]: 7.03 µM (active)
EC50 [14]: 7.74 µM (active)
IC50 [13]: 20.9 µM (active)

O=C(c1cccc(F)c1)N1CC[C@@H]2[C@@H](CO)Nc3ccc(-c4cccc(F)c4)cc3[C@@H]21
AC50 [1]: 0.222 µM (active)

Cc1n(CC(=O)c2ccc([N+](=O)[O-])cc2)c2c([n+]1CC(C)C)C(=O)c1ccccc1C2=O
GI50 (SN12K1): < 0.01 µM (active)
GI50 (P388/ADR): 22.2 µM (inactive)
GI50 (P388): 0.194 µM (active)

CO[C@H](C(=O)[C@@H](O)[C@@H](C)O)[C@@H]1Cc2cc3cc(OC4CC(OC5CC(O)C(O)C(C)O5)C(O)C(C)O4)c(C)c(O)c3c(O)c2C(=O)[C@H]1OC1CC(OC2CC(OC3CC(C)(O)C(O)C(C)O3)C(O)C(C)O2)C(O)C(C)O1 (stereo partly specified)
GI50 (SN12K1): 0.348 µM (active)
GI50 (P388/ADR): 1.33 µM (inactive)
GI50 (P388): 0.441 µM (active)

O=C(NC(c1ccccc1)c1ccccc1)C1CCCO1 (stereo unspecified)
EC50 (cells [10]): > 350 µM (not active)
EC50 (cells [11]): > 350 µM (not active)

C[C@@H](CO)NC(=O)[C@@H]1C=C2c3cccc4[nH]cc(c34)C[C@H]2N(C)C1 [ERGONOVINE]
AC50 (Cytochrome P450 3A4): 20 µM (inconclusive)

CCN(CC)CCCC(C)n1c(-c2ccccc2)nc2c(NCCOC)nc(C)nc21 (stereo unspecified)
AC50 (Cytochrome P450 3A4): 20 µM (inconclusive)

COC(=O)C1=C(C)N(Cc2ccccc2)[C@]23O[C@](C(=O)OC)(C(=O)N2C1c1ccccc1)C1C(=O)N(c2ccccc2)C(=O)C13 (stereo partly specified)
AC50 (Cytochrome P450 3A4): 5.01 µM (inconclusive) and 3.98 µM (inconclusive)

Cc1ccccc1CSCC1Nc2ccc(C(=O)NCCc3ccccc3)cc2NC1=O (stereo unspecified)
IC50 [12]: 6.55 µM (active)
IC50 [13]: 17.2 µM (active)

Cc1c(N2C(=O)/C(=C\c3ccccc3O)SC2=S)c(=O)n(-c2ccccc2)n1C
IC50 (Large T antigen): 45.2 µM (active)
IC50 [16]: 46.2 µM (active)

CCCCNC(=O)COC(=O)c1ccc(Cl)c(S(=O)(=O)N2CCCC2)c1
IC50 (Bcl-2-like protein 10): > 100 µM (inactive)

Reference: ChEMBL document CHEMBL1201862, “PubChem BioAssay data set” (2004)
